Reference: patent US9353107B2 (Aurigene Discovery Technologies Limited, priority 2012, dated 2016)
Where a name gives a salt, the structure may show the parent alone.

Biological target: T1, recombinant human ALK enzyme (ALK WT) (Homo sapiens, UniProt Q9UM73)
T1 construct: purchased Carna Biosciences 08-518
Assay: ALK WT cell free enzymatic assay (TR-FRET)
Format: biochemical
Settings: 1 μM ATP; for IC50: 10 point dose response; for inhibition at 0.1 µM: compound at 100 nM; for inhibition at 0.1 µM / inhibition at 1 µM: 30 min pre-incubation; for inhibition at 1 µM: compound at 1 μM
Experimental: ALK Wild Type (WT) The ALK WT cell free assay was set up to evaluate the effects of these compounds as inhibitors of ALK enzyme. The enzymatic assay was standardized using recombinant human ALK enzyme (Cat#08-518) from Carna Biosciences using Ultra Light Poly GT (Cat# TRF 0100D) from Perkin Elmer as a substrate. TR-FRET (Time resolved fluorescence resonance energy transfer) detection technology was used for the read out. The final assay conditions were 50 mM HEPES pH 7.1, 10 mM MgCl2, 2 mM MnCl2, 0.01% BSA, 2.5 mM DTT, 0.1 mM Na3 VO4, 40 nM Ultra Light Poly GT, 2.5 ng ALK WT enzyme, 1 μM ATP and 125 nM Lance Eu-W1024 labeled anti phospho tyrosine antibody (Cat# AD0203, Perkin Elmer) in 384 well format. The assay reaction time with the substrate was 30 minutes after which the antibody detection mix is added. The TR-FRET signal (Excitation at 340 nm, Emission at 615 nm and 665 nm) was read with 50 μs delay time on Victor^3 V fluorimeter. The data is calculated using the ratio of reading at 665 nM to 615 nM. The final concentration of DMSO was 1% in the assay. Compounds were screened at 100 nM and 1 μM concentrations with pre-incubation of the enzymes with compound for 30 minutes. Each individual IC50 was determined using 10 point dose response curve generated by GraphPad Prism software Version 4 (San Diego, Calif., USA) using non linear regression curve fit for sigmoidal dose response (variable slope). Percentage inhibition at concentrations of 100 nM and 1.0 μM are given in table along with the IC50 (nM) details for selected examples.

T1 sequence (Q9UM73 1058-1620 limits assumed): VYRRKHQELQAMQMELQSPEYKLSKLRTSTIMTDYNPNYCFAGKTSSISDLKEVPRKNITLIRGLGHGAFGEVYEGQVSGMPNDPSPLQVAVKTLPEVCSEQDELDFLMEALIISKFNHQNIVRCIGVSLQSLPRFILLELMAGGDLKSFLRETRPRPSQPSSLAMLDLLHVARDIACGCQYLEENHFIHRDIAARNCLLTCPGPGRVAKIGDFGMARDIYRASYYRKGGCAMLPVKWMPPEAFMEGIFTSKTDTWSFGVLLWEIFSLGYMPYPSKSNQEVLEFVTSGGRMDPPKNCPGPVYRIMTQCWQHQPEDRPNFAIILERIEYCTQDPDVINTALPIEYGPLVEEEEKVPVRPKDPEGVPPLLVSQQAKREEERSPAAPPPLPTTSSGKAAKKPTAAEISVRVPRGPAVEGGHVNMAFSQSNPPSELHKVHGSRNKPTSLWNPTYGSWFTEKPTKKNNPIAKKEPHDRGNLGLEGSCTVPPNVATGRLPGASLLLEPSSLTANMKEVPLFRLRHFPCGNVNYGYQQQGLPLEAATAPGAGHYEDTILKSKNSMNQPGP

Row | IC50 [nM] | inhibition at 0.1 µM [%] | inhibition at 1 µM [%] | SMILES
1 | 50 to 250 | 51 | 80 | Cc1nn(Cc2cccc(F)c2)c(C)c1-c1c[nH]c2ncc(-c3ccc(N4CCOCC4)cc3)cc12 [Example 45, 4-(4-(3-(1-(3-fluorobenzyl)-3,5-dimethyl-1H-pyrazol-4-yl)-1H-pyrrolo[2,3-b]pyridin-5-yl)phenyl) morpholine]
2 | < 50 | 80 | 98 | COc1cccc(Cn2nc(C)c(-c3c[nH]c4ncc(-c5ccc(N6CCNCC6)cc5)cc34)c2C)c1 [Example 46, 3-(1-(3-methoxybenzyl)-3,5-dimethyl-1H-pyrazol-4-yl)-5-(4-(piperazin-1-yl)phenyl)-1H-pyrrolo[2,3-b]pyridine hydrochloride]
3 | < 50 | 90 | 100 | Cc1nn(Cc2cccc(Cl)c2)c(C)c1-c1c[nH]c2ncc(-c3ccc(N4CCNCC4)cc3)cc12 [Example 47, 3-(1-(3-chlorobenzyl)-3,5-dimethyl-1H-pyrazol-4-yl)-5-(4-(piperazin-1-yl)phenyl)-1H-pyrrolo[2,3-b]pyridine hydrochloride]
4 | 50 to 250 | 52 | 83 | Cc1nn(Cc2cccc(C#N)c2)c(C)c1-c1c[nH]c2ncc(-c3ccc(N4CCNCC4)cc3)cc12 [Example 48, 3-((3,5-dimethyl-4-(5-(4-(piperazin-1-yl)phenyl)-1H-pyrrolo[2,3-b]pyridin-3-yl)-1H-pyrazol-1-yl)methyl)benzonitrile hydrochloride]
5 | < 50 | 70 | 91 | CC(=O)N1CCN(c2ccc(-c3cnc4[nH]cc(-c5c(C)nn(Cc6cccc(F)c6)c5C)c4c3)cc2)CC1 [Example 49, 1-(4-(4-(3-(1-(3-fluorobenzyl)-3,5-dimethyl-1H-pyrazol-4-yl)-1H-pyrrolo[2,3-b]pyridin-5-yl)phenyl)piperazin-1-yl)ethanone]
6 | < 50 | 60 | 89 | CC(=O)Nc1cccc(Cn2nc(C)c(-c3c[nH]c4ncc(-c5ccc(N6CCNCC6)cc5)cc34)c2C)c1 [Example 50, N-(3-((3,5-dimethyl-4-(5-(4-(piperazin-1-yl)phenyl)-1H-pyrrolo[2,3-b]pyridin-3-yl)-1H-pyrazol-1-yl)methyl)phenyl)acetamide]
7 | < 50 | 84 | 100 | Cc1cccc(Cn2nc(C)c(-c3c[nH]c4ncc(-c5ccc(N6CCNCC6)cc5)cc34)c2C)c1 [Example 51, 3-(3,5-dimethyl-1-(3-methylbenzyl)-1H-pyrazol-4-yl)-5-(4-(piperazin-1-yl)phenyl)-1H-pyrrolo[2,3-b]pyridine hydrochloride]
8 | > 250 | 12 | 80 | Cc1nn(Cc2cccc(OC(F)(F)F)c2)c(C)c1-c1c[nH]c2ncc(-c3ccc(N4CCNCC4)cc3)cc12 [Example 52, 3-(3,5-dimethyl-1-(3-(trifluoromethoxy)benzyl)-1H-pyrazol-4-yl)-5-(4-(piperazin-1-yl)phenyl)-1H-pyrrolo[2,3-b]pyridine hydrochloride]
9 |  | 0 | 25 | CCOc1cccc(Cn2nc(C)c(-c3c[nH]c4ncc(-c5ccc(N6CCNCC6)cc5)cc34)c2C)c1 [Example 54, 3-(1-(3-ethoxybenzyl)-3,5-dimethyl-1H-pyrazol-4-yl)-5-(4-(piperazin-1-yl)phenyl)-1H-pyrrolo[2,3-b]pyridine hydrochloride]
10 |  | 2 | 43 | Cc1nn(Cc2cccc(F)c2)c(C)c1-c1c[nH]c2nc(C3CC3)c(-c3ccc(N4CCNCC4)cc3)cc12 [Example 55, 6-cyclopropyl-3-(1-(3-fluorobenzyl)-3,5-dimethyl-1H-pyrazol-4-yl)-5-(4-(piperazin-1-yl)phenyl)-1H-pyrrolo[2,3-b]pyridine hydrochloride]
11 | < 50 | 91 | 100 | Cc1nn(Cc2cccc(F)c2)c(C)c1-c1c[nH]c2ncc(-c3ccc(N4CCN(C)CC4)cc3)cc12 [Example 56, 3-(1-(3-fluorobenzyl)-3,5-dimethyl-1H-pyrazol-4-yl)-5-(4-(4-methylpiperazin-1-yl)phenyl)-1H pyrrolo[2,3-b]pyridine]
12 | < 50 | 93 | 100 | Cc1nn(Cc2cccc(F)c2)c(C)c1-c1c[nH]c2ncc(-c3ccc(N4CCN(CCN(C)C)CC4)cc3)cc12 [Example 57, 2-(4-(4-(3-(1-(3-fluorobenzyl)-3,5-dimethyl-1H-pyrazol-4-yl)-1H-pyrrolo[2,3-b]pyridin-5-yl)phenyl)piperazin-1-yl)-N,N-dimethylethanamine]
13 | < 50 | 92 | 100 | Cc1nn(Cc2cccc(F)c2)c(C)c1-c1c[nH]c2ncc(-c3ccc(N4CCNCC4)c(NS(C)(=O)=O)c3)cc12 [Example 58, N-(5-(3-(1-(3-fluorobenzyl)-3,5-dimethyl-1H-pyrazol-4-yl)-1H-pyrrolo[2,3-b]pyridin-5-yl)-2-(piperazin-1-yl)phenyl)methanesulfonamide hydrochloride]
14 | 50 to 250 | 49 | 77 | Cc1nn(Cc2cccc(F)c2)c(C)c1-c1c[nH]c2ncc(-c3ccc(N4CCOCC4)c(NS(C)(=O)=O)c3)cc12 [Example 59, N-(5-(3-(1-(3-fluorobenzyl)-3,5-dimethyl-1H-pyrazol-4-yl)-1H-pyrrolo[2,3-b]pyridin-5-yl)-2-morpholinophenyl)methanesulfonamide]
15 |  | 9 | 10 | Cc1nn(Cc2cc(F)cc(F)c2)c(C)c1-c1c[nH]c2nc(C3CC3)c(-c3ccc(N4CCNCC4)cc3)cc12 [Example 60, 6-cyclopropyl-3-(1-(3,5-difluorobenzyl)-3,5-dimethyl-1H-pyrazol-4-yl)-5-(4-(piperazin-1-yl)phenyl)-1H-pyrrolo[2,3-b]pyridine hydrochloride]
16 | < 50 | 73 | 96 | COc1cc(N2CCNCC2)ccc1-c1cnc2[nH]cc(-c3c(C)nn(Cc4cccc(F)c4)c3C)c2c1 [Example 61, 3-(1-(3-fluorobenzyl)-3,5-dimethyl-1H-pyrazol-4-yl)-5-(2-methoxy-4-(piperazin-1-yl)phenyl)-1H-pyrrolo[2,3-b]pyridine hydrochloride]
17 | < 50 | 87 | 100 | COc1cc(-c2cnc3[nH]cc(-c4c(C)nn(Cc5cccc(F)c5)c4C)c3c2)ccc1N1CCNCC1 [Example 62, 3-(1-(3-fluorobenzyl)-3,5-dimethyl-1H-pyrazol-4-yl)-5-(3-methoxy-4-(piperazin-1-yl)phenyl)-1H-pyrrolo[2,3-b]pyridine hydrochloride]
18 |  | 15 | 48 | Cc1nn(Cc2cccc(F)c2)c(C)c1-c1c(C2CC2)[nH]c2ncc(-c3ccc(N4CCNCC4)cc3)cc12 [Example 63, 2-cyclopropyl-3-(1-(3-fluorobenzyl)-3,5-dimethyl-1H-pyrazol-4-yl)-5-(4-(piperazin-1-yl)phenyl)-1H-pyrrolo[2,3-b]pyridine]
19 | < 50 | 59 | 82 | COc1ccc(-c2cnc3[nH]cc(-c4cnn(CCc5ccccc5)c4)c3c2)cc1NS(C)(=O)=O [Example 64, N-(2-methoxy-5-(3-(1-phenethyl-1H-pyrazol-4-yl)-1H-pyrrolo[2,3-b]pyridin-5-yl)phenyl) methanesulfonamide]
20 | < 50 | 97 | 100 | COc1ncc(-c2cnc3[nH]cc(-c4cnn(Cc5cccc(F)c5)c4)c3c2)cc1N [Example 65, 5-(3-(1-(3-fluorobenzyl)-1H-pyrazol-4-yl)-1H-pyrrolo[2,3-b]pyridin-5-yl)-2-methoxypyridin-3-amine]
21 |  | 38 | 95 | Cc1nn(Cc2cccc(F)c2)c(C)c1-c1c[nH]c2ncc(-c3cnc(O)c(NS(C)(=O)=O)c3)cc12 [Example 66, N-(5-(3-(1-(3-fluorobenzyl)-3,5-dimethyl-1H-pyrazol-4-yl)-1H-pyrrolo[2,3-b]pyridin-5-yl)-2-hydroxypyridin-3-yl)methanesulfonamide]
22 | < 50 | 98 | 100 | COc1ncc(-c2cnc3[nH]cc(-c4cnn(Cc5cccc(F)c5)c4)c3c2)cc1NS(C)(=O)=O [Example 67, N-(5-(3-(1-(3-fluorobenzyl)-1H-pyrazol-4-yl)-1H-pyrrolo[2,3-b]pyridin-5-yl)-2-methoxypyridin-3-yl)methanesulfonamide]
23 |  | 70 | 93 | COc1cc(-c2cnc3[nH]cc(-c4cnn(Cc5cccc(F)c5)c4)c3c2)ccc1NS(C)(=O)=O [Example 68, N-(4-(3-(1-(3-fluorobenzyl)-1H-pyrazol-4-yl)-1H-pyrrolo[2,3-b]pyridin-5-yl)-2-methoxyphenyl) methanesulfonamide]
